Results on five compounds are retold here after BindingDB's records for doi:10.1021/np970367q (Seoul National University, 1998).

Each structure is given as a SMILES string.

This experiment in a line: Inhibition of bovine brain PI-PLCgamma1 at 125 ug/mL.
The term IC50 denotes the point on the concentration scale where inhibition reaches its midpoint. Read a high IC50 as a need for much substance. As for `CCCCCC/C=C\CCCCCCCCCc1cccc(O)c1` [3-[10'(Z)-heptadecenyl]phenol], it took 95 µM to reach half-maximal inhibition (IC50). The value for `CCCCCCCCCCCCCCCc1cccc(O)c1` [3-pentadecylphenol] was 92.6 µM; that for `CCCCCCCCCCCCCc1cccc(O)c1` [3-tridecyl phenol] was 88 µM. The value for `CCCCCC/C=C\CCCCCCCCCc1cccc(O)c1C(=O)O` [6-[10'(Z)-heptade-cenyljsalicylic acid] was 74 µM. In the case of `CCCCCC/C=C\CCCCCCCc1cccc(O)c1C(=O)O` [6-{8(Z)-pentadecenyl}salicylic acid], the IC50 worked out at 76.3 µM.
